Experimental data from US10618869B2, “Oligo-benzamide compounds and their use” (The Board of Regents of the University of Texas System, priority 2010, dated 2020).

What was measured:
[1] = Stability of D2 in culture and in LNCaP cell lysate (HPLC); assay type: in vitro ADME
Source text: FIGS. 4A-F. (FIG. 4A) Chemical structure of the bis-benzamide (D2). (FIG. 4B) the lowest-energy conformation of D2. (FIG. 4C) the stereoview of the superimposition of D2 on a helical turn.

[2] = tested on: prostate cancer cells; experiment: Toxicity in vitro and in vivo
Source text: The peptidomimetics of the present invention are non-toxic under in vitro and in vivo conditions. The development of these peptidomimetics represents a quantum leap in the development of a drug to target AR signaling. […] In addition to improvements in the helical face and presentation of the leucines, the inventors have proven efficacy of this system against prostate cancer cell proliferation both in vitro and in vivo. Thus, in contrast to existing technology, the inventors have developed and tested an active peptidomimetic against prostate cancer and other androgen receptor involved cancers.
They have shown that this synthetic peptidomimetic D2 is capable of blocking AR-PELP-1 interaction, nuclear translocation of AR, AR mediated genomic signaling as well as DHT-mediated proliferation of prostate cancer cells in vitro. The IC50 of D2 appears to be around 40 nM. The effect of the D2 peptidomimetic appears to be specific to blocking AR-PELP-1 interaction, as overexpression of AR or PELP-1 may overcome D2-mediated blockade. […] In comparison, administration of either control peptidomimetics or control soluent has no effect on the growth of prostate cancer cells in vitro or in vivo. In addition, the inventors have generated and tested hundreds of variants of D2 and have identified related peptidomimetics with similar or equivalent potency.

[3] = tested on: LNCaP cells; experiment: Uptake of fluorescein analogues of D2 by LNCaP cells; assay type: cell-based; conditions: summary statement
Procedure: FIGS. 14A-C. Effect of chemical conjugation of Fluorescein to D2 at the amino and carboxy terminus (FIG. 14A) on uptake by LnCaP cells at 4 hours (FIG. 14B) and on DHT-induced proliferation of PCa cells (FIG. 14C).
In FIG. 14, two fluorescent analogues of D2 were prepared, one by introducing a fluorescein moiety to the C-terminus of D2 (CF1-D2) and the other by placing it at the N-terminus (CF2-D2).

[4] = tested on: PSA protein; experiment: DHT-induced PSA protein expression (western blot); assay type: cell-based; conditions: protein level
Source text: FIG. 8 confirms these findings by QPCR experiment evaluating the effect of D1 and D2 on DHT-induced TMPRSS and PSA gene expression at the RNA level in LNCaP cells (bottom left panel) and by western blot analyses as evaluated by the effect of D1 and D2 on the expression of PSA, androgen receptor and actin in LAPC4 cells at the protein level. […] Confirmation of these findings were obtained by QPCR and western blot analyses.
At the protein level, D2, but not D1, was able to block DHT-induced expression of PSA protein. Again, the suppresion of DHT-induced transcription from an ARE could be overcome by overexpression of either AR or PELP1 ([…]). Overexpression of PELP1 was able to rescue the D2-mediated suppression of DHT-induced transcription nearly back to baseline.

## COC(=O)c1ccc(NC(=O)c2ccc([N+](=O)[O-])c(OCC(C)C)c2)c(OCC(C)C)c1 [D2]
[1]; LNCaP cell lysate, 37° C., 7 days
  stability in cell lysate: stable in cell lysate of LNCaP over 7 days
[1]; in culture, FIG. 4E
  stability in culture (HPLC): single peak on the HPLC
[2]
  toxicity: non-toxic to prostate cancer cells
[3]
  entry into prostate cancer cells: enters the prostate cancer cells
[4]
  DHT-induced expression of PSA protein: able to block
